Source: ChEMBL document CHEMBL5465560, “Selectivity Literature for EUbOPEN Chemogenomic Library” (2024)

Tests used:
[1] = target: T1, Muscarinic acetylcholine receptor M2 (Homo sapiens) (UniProt P08172); assay: Selectivity interaction (Panel of non-epigenetic targets (kinases, GPCRs, ion channels, and transporters, Eurofins) ) EUB0000271b CHRM2; settings: at 1 µM
T1 sequence (whole entry): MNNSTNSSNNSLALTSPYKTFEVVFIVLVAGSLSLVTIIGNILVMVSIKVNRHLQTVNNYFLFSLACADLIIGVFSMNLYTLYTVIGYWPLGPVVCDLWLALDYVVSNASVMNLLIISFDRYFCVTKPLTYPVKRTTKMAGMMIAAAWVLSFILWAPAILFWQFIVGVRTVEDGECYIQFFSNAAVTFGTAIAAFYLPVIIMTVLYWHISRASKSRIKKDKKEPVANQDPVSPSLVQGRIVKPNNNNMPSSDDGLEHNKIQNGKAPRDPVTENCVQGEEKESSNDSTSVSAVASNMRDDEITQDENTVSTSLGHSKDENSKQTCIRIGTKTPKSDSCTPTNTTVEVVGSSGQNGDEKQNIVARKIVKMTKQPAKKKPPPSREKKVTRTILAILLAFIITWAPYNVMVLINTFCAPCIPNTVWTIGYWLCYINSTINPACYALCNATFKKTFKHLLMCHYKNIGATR

[2] = target: Activin receptor type-2B (Homo sapiens) (UniProt Q13705); assay: Selectivity interaction (KinomeScan (DiscoverX)) EUB0001079a ACVR2B; settings: at 1 µM
[3] = target: Casein kinase I isoform epsilon (Homo sapiens, UniProt P49674); assay: Selectivity interaction (KinomeScan (DiscoverX)) EUB0001079a CSNK1E; settings: at 1 µM
[4] = target: Mitogen-activated protein kinase kinase kinase 10 (Homo sapiens) (UniProt Q02779); assay: Selectivity interaction (KinomeScan (DiscoverX)) EUB0000607a MAP3K10; settings: at 10 µM
[5] = target: STE20/SPS1-related proline-alanine-rich protein kinase (Homo sapiens) (UniProt Q9UEW8); assay: Selectivity interaction (KinomeScan (DiscoverX)) EUB0000607a STK39; settings: at 10 µM
[6] = target: Mitogen-activated protein kinase kinase kinase kinase 5 (Homo sapiens) (UniProt Q9Y4K4); settings: at 10 µM
[7] = target: Serine/threonine-protein kinase PAK 6 (Homo sapiens) (UniProt Q9NQU5); assay: Selectivity interaction (Upstate Kinase Profiler service (Millipore)) EUB0000056c PAK6; settings: at 1 µM
[8] = target: Serine/threonine-protein kinase 10 (Homo sapiens) (UniProt O94804); settings: at 10 µM
[9] = target: Tyrosine-protein kinase SYK (Homo sapiens, UniProt P43405); assay: Selectivity interaction (ActivX KiNativ screen (kinase selectivity in THP-1 cell lysates)) EUB0000639a SYK; type: subcellular; settings: lysate
[10] = tested on: Epidermal growth factor receptor (Homo sapiens), P00533 [UNDEFINED MUTATION]; assay: Selectivity interaction (KinomeScan (DiscoverX)) EUB0000229b EGFR; settings: at 1 µM
[11] = target: Serine/threonine-protein kinase N1 (Homo sapiens, UniProt Q16512); assay: Selectivity interaction (Kinase panel (33PanQinase(R) Activity Assay)) EUB0000877a PKN1
[12] = target: T2, Activin receptor type-1B (Homo sapiens) (UniProt P36896); assay: Selectivity interaction (KinomeScan (DiscoverX)) EUB0000092b ACVR1B; settings: at 10 µM
T2 sequence (whole entry): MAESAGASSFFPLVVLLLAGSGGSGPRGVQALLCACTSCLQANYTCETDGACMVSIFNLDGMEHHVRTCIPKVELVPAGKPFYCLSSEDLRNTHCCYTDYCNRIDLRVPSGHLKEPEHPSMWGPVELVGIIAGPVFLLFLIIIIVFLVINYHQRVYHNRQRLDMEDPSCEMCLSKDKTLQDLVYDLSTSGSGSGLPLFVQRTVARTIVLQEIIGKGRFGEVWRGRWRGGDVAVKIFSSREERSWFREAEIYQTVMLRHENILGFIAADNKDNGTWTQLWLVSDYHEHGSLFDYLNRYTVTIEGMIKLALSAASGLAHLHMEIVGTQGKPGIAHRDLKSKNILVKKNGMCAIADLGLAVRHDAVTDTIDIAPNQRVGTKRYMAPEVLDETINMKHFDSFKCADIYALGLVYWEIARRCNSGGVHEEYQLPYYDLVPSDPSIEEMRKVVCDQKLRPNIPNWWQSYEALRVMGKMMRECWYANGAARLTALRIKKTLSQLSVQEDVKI

[13] = target: Serine/threonine-protein kinase B-raf (Homo sapiens) (UniProt P15056); assay: (§1) Selectivity interaction (Kinase panel (Z-LYTE Assay)) EUB0001632a BRAF; settings: at 10 µM
[14] = tested on: Serine/threonine-protein kinase B-raf (Homo sapiens), P15056 [V600E]; assay: as §1; settings: at 10 µM
[15] = target: T3, MAP kinase-activated protein kinase 5 (Homo sapiens) (UniProt Q8IW41); assay: Selectivity interaction (KinomeScan (DiscoverX)) EUB0000695a MAPKAPK5; settings: at 100 nM
T3 sequence (whole entry): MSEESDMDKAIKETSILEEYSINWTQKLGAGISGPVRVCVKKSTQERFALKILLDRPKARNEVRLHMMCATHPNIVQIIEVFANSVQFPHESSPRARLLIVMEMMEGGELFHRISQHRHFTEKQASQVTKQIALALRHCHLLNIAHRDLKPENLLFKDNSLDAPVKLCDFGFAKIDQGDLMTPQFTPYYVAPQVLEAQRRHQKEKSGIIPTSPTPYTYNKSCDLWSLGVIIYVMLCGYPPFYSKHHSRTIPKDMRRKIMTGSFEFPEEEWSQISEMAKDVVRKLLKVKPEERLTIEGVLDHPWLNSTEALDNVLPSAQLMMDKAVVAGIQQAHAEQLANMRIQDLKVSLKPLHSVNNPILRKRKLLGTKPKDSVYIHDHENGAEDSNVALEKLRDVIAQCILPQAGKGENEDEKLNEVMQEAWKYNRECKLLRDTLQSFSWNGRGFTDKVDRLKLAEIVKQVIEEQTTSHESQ

Sequence of Serine/threonine-protein kinase B-raf (Homo sapiens), P15056 [V600E] (P15056 whole entry V600E): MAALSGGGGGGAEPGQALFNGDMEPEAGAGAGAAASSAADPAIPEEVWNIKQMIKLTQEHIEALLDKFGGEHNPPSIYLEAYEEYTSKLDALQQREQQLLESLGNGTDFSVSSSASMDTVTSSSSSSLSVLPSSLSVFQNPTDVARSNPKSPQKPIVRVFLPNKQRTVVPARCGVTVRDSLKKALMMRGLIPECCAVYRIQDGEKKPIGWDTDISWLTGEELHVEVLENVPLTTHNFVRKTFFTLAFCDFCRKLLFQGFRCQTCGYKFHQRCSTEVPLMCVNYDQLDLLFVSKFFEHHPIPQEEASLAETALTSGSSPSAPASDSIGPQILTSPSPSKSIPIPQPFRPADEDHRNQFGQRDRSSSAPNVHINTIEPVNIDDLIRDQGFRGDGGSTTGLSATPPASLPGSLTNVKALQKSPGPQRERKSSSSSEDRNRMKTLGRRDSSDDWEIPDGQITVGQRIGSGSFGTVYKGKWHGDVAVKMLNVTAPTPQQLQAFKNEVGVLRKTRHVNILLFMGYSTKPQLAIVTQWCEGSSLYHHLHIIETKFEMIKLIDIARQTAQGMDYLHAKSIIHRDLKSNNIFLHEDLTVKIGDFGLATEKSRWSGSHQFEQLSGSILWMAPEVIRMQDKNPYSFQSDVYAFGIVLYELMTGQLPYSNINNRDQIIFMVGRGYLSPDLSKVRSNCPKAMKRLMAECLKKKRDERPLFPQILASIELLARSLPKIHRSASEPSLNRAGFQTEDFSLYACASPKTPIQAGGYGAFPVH
Sequence of Serine/threonine-protein kinase B-raf (Homo sapiens) (P15056 whole entry): as the sequence (P15056 whole entry V600E) above, with E600V counted along it
Sequence of Mitogen-activated protein kinase kinase kinase 10 (Homo sapiens) (Q02779 whole entry, looked up): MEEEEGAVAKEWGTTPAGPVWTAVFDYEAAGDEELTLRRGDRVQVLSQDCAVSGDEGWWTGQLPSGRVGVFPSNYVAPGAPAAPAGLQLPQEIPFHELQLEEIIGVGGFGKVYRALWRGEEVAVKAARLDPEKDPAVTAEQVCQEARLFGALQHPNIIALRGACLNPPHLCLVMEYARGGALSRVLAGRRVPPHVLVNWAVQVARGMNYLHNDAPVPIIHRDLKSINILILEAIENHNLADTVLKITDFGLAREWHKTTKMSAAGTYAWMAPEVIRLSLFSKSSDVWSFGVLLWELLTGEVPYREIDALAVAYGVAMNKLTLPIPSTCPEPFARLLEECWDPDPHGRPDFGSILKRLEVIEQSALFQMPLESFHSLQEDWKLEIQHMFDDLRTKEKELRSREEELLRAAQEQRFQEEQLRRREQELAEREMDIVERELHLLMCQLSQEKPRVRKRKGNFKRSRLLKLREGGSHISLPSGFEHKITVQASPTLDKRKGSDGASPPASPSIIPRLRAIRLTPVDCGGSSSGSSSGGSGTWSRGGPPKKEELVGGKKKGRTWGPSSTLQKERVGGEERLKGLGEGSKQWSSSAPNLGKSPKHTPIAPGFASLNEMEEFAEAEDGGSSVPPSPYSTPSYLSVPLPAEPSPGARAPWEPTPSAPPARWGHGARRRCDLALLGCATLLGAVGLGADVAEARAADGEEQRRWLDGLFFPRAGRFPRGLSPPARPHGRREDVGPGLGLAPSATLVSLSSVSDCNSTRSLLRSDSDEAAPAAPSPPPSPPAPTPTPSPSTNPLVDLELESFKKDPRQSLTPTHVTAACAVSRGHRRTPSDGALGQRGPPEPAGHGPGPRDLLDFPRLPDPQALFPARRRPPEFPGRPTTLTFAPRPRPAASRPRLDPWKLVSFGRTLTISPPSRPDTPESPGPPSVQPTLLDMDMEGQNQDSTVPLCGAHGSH
Sequence of Serine/threonine-protein kinase 10 (Homo sapiens) (O94804 whole entry, looked up): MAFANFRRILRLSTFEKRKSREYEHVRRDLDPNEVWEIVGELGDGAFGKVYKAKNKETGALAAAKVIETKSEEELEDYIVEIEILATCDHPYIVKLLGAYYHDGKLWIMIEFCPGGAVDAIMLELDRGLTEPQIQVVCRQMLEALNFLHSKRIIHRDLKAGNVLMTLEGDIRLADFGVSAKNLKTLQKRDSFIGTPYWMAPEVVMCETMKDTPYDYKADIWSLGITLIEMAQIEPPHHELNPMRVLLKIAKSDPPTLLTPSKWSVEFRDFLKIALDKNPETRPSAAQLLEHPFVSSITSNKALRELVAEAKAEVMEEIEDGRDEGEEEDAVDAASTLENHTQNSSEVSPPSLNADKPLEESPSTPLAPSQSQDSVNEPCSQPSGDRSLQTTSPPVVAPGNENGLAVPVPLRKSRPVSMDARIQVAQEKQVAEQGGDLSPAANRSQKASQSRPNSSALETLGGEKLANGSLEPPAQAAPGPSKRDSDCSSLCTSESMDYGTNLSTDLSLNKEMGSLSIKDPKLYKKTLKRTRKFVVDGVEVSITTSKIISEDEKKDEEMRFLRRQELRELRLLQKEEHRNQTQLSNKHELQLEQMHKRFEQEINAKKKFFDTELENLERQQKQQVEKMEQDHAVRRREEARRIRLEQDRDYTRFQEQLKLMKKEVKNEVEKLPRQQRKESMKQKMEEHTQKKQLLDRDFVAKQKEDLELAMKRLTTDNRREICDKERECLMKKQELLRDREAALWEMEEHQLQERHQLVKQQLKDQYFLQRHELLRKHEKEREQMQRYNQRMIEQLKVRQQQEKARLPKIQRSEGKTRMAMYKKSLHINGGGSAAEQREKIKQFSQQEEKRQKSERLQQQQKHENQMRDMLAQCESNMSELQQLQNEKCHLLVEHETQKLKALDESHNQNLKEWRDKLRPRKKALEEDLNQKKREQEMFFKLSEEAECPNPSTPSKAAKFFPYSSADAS
Sequence of Mitogen-activated protein kinase kinase kinase kinase 5 (Homo sapiens) (Q9Y4K4 whole entry, looked up): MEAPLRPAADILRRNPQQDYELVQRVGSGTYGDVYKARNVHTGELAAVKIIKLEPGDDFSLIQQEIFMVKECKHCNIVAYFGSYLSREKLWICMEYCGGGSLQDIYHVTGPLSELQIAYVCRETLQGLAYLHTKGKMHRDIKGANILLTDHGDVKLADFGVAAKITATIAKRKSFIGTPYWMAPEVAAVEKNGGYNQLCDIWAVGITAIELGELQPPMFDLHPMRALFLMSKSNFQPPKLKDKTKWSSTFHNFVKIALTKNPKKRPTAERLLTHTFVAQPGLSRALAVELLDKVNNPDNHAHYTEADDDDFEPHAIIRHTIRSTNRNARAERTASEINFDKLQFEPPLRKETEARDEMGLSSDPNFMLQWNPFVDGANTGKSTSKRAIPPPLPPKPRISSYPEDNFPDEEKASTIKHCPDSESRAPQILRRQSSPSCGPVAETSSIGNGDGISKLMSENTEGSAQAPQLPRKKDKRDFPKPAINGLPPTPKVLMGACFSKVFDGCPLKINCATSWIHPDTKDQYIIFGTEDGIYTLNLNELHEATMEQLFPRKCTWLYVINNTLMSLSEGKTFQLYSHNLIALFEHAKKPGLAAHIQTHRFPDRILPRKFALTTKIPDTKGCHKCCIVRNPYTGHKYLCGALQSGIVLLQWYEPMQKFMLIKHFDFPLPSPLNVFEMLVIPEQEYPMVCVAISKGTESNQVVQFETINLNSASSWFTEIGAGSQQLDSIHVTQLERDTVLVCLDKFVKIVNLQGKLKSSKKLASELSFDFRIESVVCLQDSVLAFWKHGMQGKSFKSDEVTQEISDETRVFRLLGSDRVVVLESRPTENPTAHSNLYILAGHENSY
Sequence of Serine/threonine-protein kinase N1 (Q16512 whole entry): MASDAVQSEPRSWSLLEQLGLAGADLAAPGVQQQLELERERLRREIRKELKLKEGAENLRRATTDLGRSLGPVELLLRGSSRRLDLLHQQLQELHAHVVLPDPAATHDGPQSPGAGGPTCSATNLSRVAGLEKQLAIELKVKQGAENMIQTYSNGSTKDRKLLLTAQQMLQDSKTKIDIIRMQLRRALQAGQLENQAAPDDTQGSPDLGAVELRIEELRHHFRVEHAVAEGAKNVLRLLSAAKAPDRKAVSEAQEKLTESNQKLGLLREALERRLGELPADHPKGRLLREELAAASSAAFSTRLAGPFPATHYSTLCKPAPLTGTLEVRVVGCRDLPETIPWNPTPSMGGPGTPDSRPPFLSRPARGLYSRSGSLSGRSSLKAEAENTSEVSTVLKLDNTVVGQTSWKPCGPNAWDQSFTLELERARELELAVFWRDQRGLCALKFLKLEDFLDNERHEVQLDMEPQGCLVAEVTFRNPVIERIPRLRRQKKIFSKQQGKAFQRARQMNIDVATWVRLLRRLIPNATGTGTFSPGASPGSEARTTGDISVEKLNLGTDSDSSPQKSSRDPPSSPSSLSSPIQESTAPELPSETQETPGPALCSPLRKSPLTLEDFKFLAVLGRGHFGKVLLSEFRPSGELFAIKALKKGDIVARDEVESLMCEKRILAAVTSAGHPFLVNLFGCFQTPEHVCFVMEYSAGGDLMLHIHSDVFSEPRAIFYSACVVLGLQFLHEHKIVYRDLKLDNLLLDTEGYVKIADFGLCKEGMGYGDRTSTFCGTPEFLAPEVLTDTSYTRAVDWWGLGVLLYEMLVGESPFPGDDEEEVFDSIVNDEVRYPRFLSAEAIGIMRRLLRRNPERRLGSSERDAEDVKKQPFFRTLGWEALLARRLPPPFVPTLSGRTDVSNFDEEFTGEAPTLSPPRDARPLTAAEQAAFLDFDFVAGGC
Sequence of Activin receptor type-2B (Homo sapiens) (Q13705 whole entry, canonical isoform): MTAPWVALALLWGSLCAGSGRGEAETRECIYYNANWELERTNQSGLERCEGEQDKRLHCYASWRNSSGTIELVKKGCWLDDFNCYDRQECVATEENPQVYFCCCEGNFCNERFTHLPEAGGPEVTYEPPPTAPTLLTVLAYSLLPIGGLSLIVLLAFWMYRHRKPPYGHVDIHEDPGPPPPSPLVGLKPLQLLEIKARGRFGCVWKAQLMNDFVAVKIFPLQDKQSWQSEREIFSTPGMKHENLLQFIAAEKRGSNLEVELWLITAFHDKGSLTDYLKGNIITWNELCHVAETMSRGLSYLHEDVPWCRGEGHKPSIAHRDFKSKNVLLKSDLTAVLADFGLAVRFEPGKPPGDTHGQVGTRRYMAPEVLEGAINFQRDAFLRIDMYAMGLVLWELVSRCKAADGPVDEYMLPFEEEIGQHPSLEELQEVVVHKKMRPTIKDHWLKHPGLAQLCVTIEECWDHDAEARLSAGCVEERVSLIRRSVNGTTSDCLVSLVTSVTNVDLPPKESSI

Compound `Cc1cc(C)cc([C@@H]2c3cc(C)ccc3NC(=O)CN2C(=O)c2ccc(Br)s2)c1` has a % of inhibition [1] of -5%.

For `Nc1cnc(N2CCc3cc(S(=O)(=O)Nc4c(F)cc(Cl)cc4F)cc(N4CCCC4=O)c32)nc1` [TP-020n], the % of control [2] was 80% and the % of control [3] was 89%.

`CNC(=O)Nc1ccc(-c2nc(N3CC4CCC(C3)O4)c3cnn(C4CCC5(CC4)OCCO5)c3n2)cc1` gave a % of control [4] of 100% and a % of control [5] of 100%.

`COCC(=O)NC/C=C/c1ccc2ncnc(Nc3ccc(Oc4ccc(C)nc4)c(C)c3)c2c1` [CP-724714] gave a % of control [6] of 86%.

For `Cc1ccc(-c2ccc3c(ccc4sc5c(c43)NC[C@@H](C)NC5=O)n2)cn1`, the % of inhibition [7] was 4%.

`Cc1cc([C@@H](C)Nc2ccccc2C(=O)O)c2nc(N3CCOCC3)cc(=O)n2c1` [AZD-6482] gave a % of control [8] of 100%.

Compound `CC[C@@H]1[C@H](F)C(=O)N[C@@H]1COc1nccc2cc(C(N)=O)c(OC)cc12` [ZIMLOVISERTIB] has a % of inhibition ([9]; at 0.01 µM) of 3.2%, a % of inhibition ([9]; at 0.04 µM) of 14.7% and a % of inhibition ([9]; at 0.2 µM) of 7.1%. It also gave a % of inhibition ([9]; at 1 µM) of 16.1% and a % of inhibition ([9]; at 5 µM) of 2.5%.

Compound `COc1cc(N(C)c2ccnc3ccc(C(F)(F)F)cc23)cc(OC)c1OC` has a % binding [10] of 98%.

For `CCC(=O)N1CC[C@H](Nc2ncnc3c2CN(c2cnc(OC)c(C(F)(F)F)c2)CC3)C1` [LENIOLISIB], the IC50 [11] was > 10 µM.

For `CCC(=O)N1CCN(c2ccc(-n3c(=O)ccc4cnc5ccc(-c6cnc7ccccc7c6)cc5c43)cc2C(F)(F)F)CC1`, the % of control [12] was 45%.

Compound `Cn1cc(-n2cnc3c(NCc4nc5cc(Cl)c(Cl)cc5[nH]4)nc(N4CCOCC4)nc32)cn1` has a % of control [13] of -4.02% and a % of control [14] of 46.2%.

Compound `Cc1cc(F)c(C(=O)Nc2cccc(-c3nncn3C(C)C)n2)cc1-n1cnc(C2CC2)c1` has a % of control [15] of 76%.
